Where a name gives a salt, the structure may show the parent alone.
Tests used:
Assay type in all cases: biochemical
recombinant rat PIM-3 = recombinant rat PIM-3 (Rattus norvegicus, UniProt O70444); test: PIM-3 Assay (as Example A); settings: averaged IC50; 30 μM ATP, 3.75 μM PIM2tide, 0.5 nM PIM-3
How it was run: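 Recombinant rat PIM-3 (0.5 nM) with 3.75 μM PIM2tide and 30 μM [γ-33P]ATP in MOPS pH 7.4 buffer, 60 min at 22 °C; labelled peptide captured on phosphocellulose filters and counted by scintillation. 10-point curve (top dose 10 μM, 2% DMSO); IC50 from 4-parameter fit of percent of control.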

PIM-1 = PIM-1 (Homo sapiens, UniProt P11309); test: Enzyme PIM-1 Assay ([33P]ATP incorporation into PIM2tide, filter plate); settings: averaged IC50; 35 μM ATP, 7.5 μM PIM2tide, 0.25 nM PIM-1, 60 min at 22° C.
PIM-1, sequence (P11309 whole entry, species assumed): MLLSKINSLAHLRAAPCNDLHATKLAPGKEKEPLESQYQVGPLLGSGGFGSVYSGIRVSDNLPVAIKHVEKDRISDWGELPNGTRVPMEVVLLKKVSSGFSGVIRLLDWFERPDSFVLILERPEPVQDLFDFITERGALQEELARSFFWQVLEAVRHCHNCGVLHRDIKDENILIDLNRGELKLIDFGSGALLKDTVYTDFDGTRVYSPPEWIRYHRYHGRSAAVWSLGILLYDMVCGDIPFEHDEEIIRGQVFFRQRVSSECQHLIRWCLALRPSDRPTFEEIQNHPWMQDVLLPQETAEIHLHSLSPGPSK
How it was run: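 Radiometric assay: 0.25 nM PIM-1 phosphorylates 7.5 μM PIM2tide with 35 μM [γ-33P]ATP in 20 mM MOPS pH 7.4, 10 mM MgCl2, 1 mM DTT, 0.005% Tween-20, 60 min at 22 °C. Product captured on P81 filters, scintillation counted; 10-point 3-fold curve from 10 μM top, 2% DMSO, IC50 by 4-parameter logistic fit of POC.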

[1] = target: T1, GST-tagged recombinant full-length human Pim-2 (Homo sapiens, UniProt Q9P1W9); test: PIM-2 Assay (as Example A); settings: averaged IC50; 4 μM ATP, 1.0 μM PIM2tide, 1.5 nM Pim-2
T1 construct: GST-tagged recombinant full-length human Pim-2; GST
T1 sequence (Q9P1W9 whole entry): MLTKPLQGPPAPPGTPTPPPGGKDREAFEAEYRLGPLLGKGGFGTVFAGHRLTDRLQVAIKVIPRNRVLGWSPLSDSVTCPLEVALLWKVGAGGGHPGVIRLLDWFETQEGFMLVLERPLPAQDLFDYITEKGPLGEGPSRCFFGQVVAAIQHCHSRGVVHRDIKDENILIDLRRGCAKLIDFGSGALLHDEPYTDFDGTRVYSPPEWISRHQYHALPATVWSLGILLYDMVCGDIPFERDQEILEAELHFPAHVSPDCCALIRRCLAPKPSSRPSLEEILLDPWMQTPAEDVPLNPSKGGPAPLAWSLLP
How it was run: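 Radiometric filter-binding assay: GST-tagged full-length human Pim-2 (1.5 nM) phosphorylates 1.0 μM PIM2tide with 4 μM [γ-33P]ATP for 60 min at 22 °C in pH 7.4 MOPS buffer, 2% DMSO. 10-point 3-fold dilutions from 10 μM top dose; IC50 from 4-parameter fit of percent of control.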

Structure (SMILES): CC(C)Oc1cc(F)cc2ccc(-c3nnc4ccc([C@H](N5CC[C@H](N)C5)C(F)(F)F)cn34)nc12 [Example 135, (S)-1-((S)-2,2,2-trifluoro-1-(3-(6-fluoro-8-isopropoxyquinolin-2-yl)-[1,2,4]triazolo[4,3-a]pyridin-6-yl)ethyl)pyrrolidin-3-amine hydrochloride]
- IC50 (recombinant rat PIM-3): 3 nM
- IC50 (PIM-1): 1.41 nM
- IC50 [1]: 82 nM

Structure (SMILES): CC(C)(C)C(=O)Nc1ccc2ccc(-c3nnc4ccc([C@@H](N5CC[C@H](N)C5)C(F)(F)F)cn34)nc2c1 [Example 71, N-(2-(6-((R)-1-((S)-3-aminopyrrolidin-1-yl)-2,2,2-trifluoroethyl)-[1,2,4]triazolo[4,3-a]pyridin-3-yl)quinolin-7-yl)pivalamide]
- IC50 (recombinant rat PIM-3): 0.3 nM
- IC50 (PIM-1): 0.2 nM
- IC50 [1]: > 100 nM

Structure (SMILES): N[C@H]1CCN([C@@H](c2ccc3nnc(-c4ccc5cccc(C6CC6)c5n4)n3c2)C(F)(F)F)C1 [Example 51, (S)-1-((S)-1-(3-(8-cyclopropylquinolin-2-yl)-[1,2,4]triazolo[4,3-a]pyridin-6-yl)-2,2,2-trifluoroethyl)pyrrolidin-3-amine dihydrochloride]
- IC50 (recombinant rat PIM-3): 1.1 nM
- IC50 (PIM-1): 0.1 nM
- IC50 [1]: 11 nM

Structure (SMILES): CC(C)[C@H](N)C(=O)OCCOc1cc2nc(-c3nnc4ccc([C@@H](N5CC[C@H](N)C5)C(F)(F)F)cn34)ccc2cc1F [Example 290, (S)-2-(2-(6-((R)-1-((S)-3-aminopyrrolidin-1-yl)-2,2,2-trifluoroethyl)-[1,2,4]triazolo[4,3-a]pyridin-3-yl)-6-fluoroquinolin-7-yloxy)ethyl 2-amino-3-methylbutanoate]
- IC50 (recombinant rat PIM-3): > 100 nM
- IC50 (PIM-1): 29.7 nM
- IC50 [1]: > 1000 nM

Structure (SMILES): CC(C)Oc1cc(F)cc2ccc(-c3nnc4ccc([C@H](N5CCC(C)(O)C5)C(F)(F)F)cn34)nc12 (single isomer, unassigned; diastereomer 1) [Example 202, hydrochloride]
- IC50 (recombinant rat PIM-3): 7.9 nM
- IC50 (PIM-1): 6.62 nM
- IC50 [1]: > 1000 nM

Structure (SMILES): COCCc1ccc2ccc(-c3nnc4ccc([C@@H](N5CC[C@H](N)C5)C(F)(F)F)cn34)nc2c1F [Example 166, (S)-1-((R)-2,2,2-trifluoro-1-(3-(8-fluoro-7-(2-methoxyethyl)quinolin-2-yl)-[1,2,4]triazolo[4,3-a]pyridin-6-yl)ethyl)pyrrolidin-3-amine dihydrochloride]
- IC50 (recombinant rat PIM-3): 8.9 nM
- IC50 (PIM-1): 1.33 nM
- IC50 [1]: > 100 nM

Structure (SMILES): C[C@@]1(N)CCN([C@@H](c2ccc3nnc(-c4ccc5cccc(C6CC6)c5n4)n3c2)C(F)(F)F)C1 [Example 94, (R)-1-((S)-1-(3-(8-cyclopropylquinolin-2-yl)-[1,2,4]triazolo[4,3-a]pyridin-6-yl)-2,2,2-trifluoroethyl)-3-methylpyrrolidin-3-amine dihydrochloride]
- IC50 (recombinant rat PIM-3): 4.6 nM
- IC50 (PIM-1): 0.29 nM
- IC50 [1]: 31 nM

Structure (SMILES): CCOc1cccc2ccc(-c3nnc4ccc([C@@H](N5CC[C@H](N)C5)C(F)(F)F)cn34)nc12 [Example 79, (S)-1-((R)-1-(3-(8-ethoxyquinolin-2-yl)-[1,2,4]triazolo[4,3-a]pyridin-6-yl)-2,2,2-trifluoroethyl)pyrrolidin-3-amine]
- IC50 (recombinant rat PIM-3): 3 nM
- IC50 (PIM-1): 0.16 nM
- IC50 [1]: 58 nM

Structure (SMILES): CCC1(N)CCN([C@@H](c2ccc3nnc(-c4ccc5cccc(OC)c5n4)n3c2)C(F)(F)F)C1 (single isomer, unassigned; diastereomer 1) [Example 250, dihydrochloride]
- IC50 (recombinant rat PIM-3): 11 nM
- IC50 (PIM-1): 2.77 nM
- IC50 [1]: 861 nM

Structure (SMILES): COCCOc1ccc2cc(F)c(-c3nnc4ccc(C(N5CC[C@](C)(N)C5)C(F)(F)F)cn34)nc2c1 (stereo in doubt) [Example 327, (S)-3-methyl-1-((R)-2,2,2-trifluoro-1-(3-(3-fluoro-7-(2-methoxyethoxy)quinolin-2-yl)-[1,2,4]triazolo[4,3-a]pyridin-6-yl)ethyl)pyrrolidin-3-amine]
- IC50 (recombinant rat PIM-3): 1.34 nM
- IC50 (PIM-1): 0.42 nM
- IC50 [1]: 340 nM

Structure (SMILES): C[C@H](c1ccc2nnc(-c3ccc4cccc(C(C)(C)C)c4n3)n2c1)N1CC[C@H](N)C1 [Example 307, (S)-1-((R)-1-(3-(8-tert-butylquinolin-2-yl)-[1,2,4]triazolo[4,3-a]pyridin-6-yl)ethyl)pyrrolidin-3-amine trihydrochloride]
- IC50 (recombinant rat PIM-3): 6.9 nM
- IC50 (PIM-1): 1.64 nM
- IC50 [1]: 62.4 nM

Structure (SMILES): CC(C)(O)COc1cc2nc(-c3nnc4ccc([C@@H](N5CC[C@H](N)C5)C(F)(F)F)cn34)ccc2cc1F [Example 302, 1-(2-(6-((R)-1-((S)-3-aminopyrrolidin-1-yl)-2,2,2-trifluoroethyl)-[1,2,4]triazolo[4,3-a]pyridin-3-yl)-6-fluoroquinolin-7-yloxy)-2-methylpropan-2-ol dihydrochloride]
- IC50 (recombinant rat PIM-3): 0.3 nM
- IC50 (PIM-1): 0.22 nM
- IC50 [1]: 69 nM

Structure (SMILES): CCOc1ccc2ccc(-c3nnc4ccc([C@H](N5CC[C@](C)(N)C5)C(F)(F)F)cn34)nc2c1 [Example 262, (S)-1-((S)-1-(3-(7-ethoxyquinolin-2-yl)-[1,2,4]triazolo[4,3-a]pyridin-6-yl)-2,2,2-trifluoroethyl)-3-methylpyrrolidin-3-amine dihydrochloride]
- IC50 (recombinant rat PIM-3): 0.4 nM
- IC50 (PIM-1): 0.22 nM
- IC50 [1]: 63 nM

Structure (SMILES): N[C@@H]1CCN([C@@H](c2ccc3nnc(-c4ccc5cccc(OCC6CC6)c5n4)n3c2)C(F)(F)F)C1 (single isomer, unassigned) [Example 23]
- IC50 (recombinant rat PIM-3): 38 nM
- IC50 (PIM-1): 2.85 nM
- IC50 [1]: 412 nM

Structure (SMILES): CC(c1ccc2nnc(-c3ccc4cccc(C(C)(C)C)c4n3)n2c1)N1CC[C@H](N)C1 (stereo partly drawn) [Example 17, (3S)-1-(1-(3-(8-tert-butylquinolin-2-yl)-[1,2,4]triazolo[4,3-a]pyridin-6-yl)ethyl)pyrrolidin-3-amine trihydrochloride]
- IC50 (recombinant rat PIM-3): 1.2 nM
- IC50 (PIM-1): 0.06 nM
- IC50 [1]: 12.4 nM

Structure (SMILES): CC(C)(CO)c1cc(F)cc2ccc(-c3nnc4ccc([C@@H](N5CC[C@H](N)C5)C(F)(F)F)cn34)nc12 [Example 121, 2-(2-(6-((R)-1-((S)-3-aminopyrrolidin-1-yl)-2,2,2-trifluoroethyl)-[1,2,4]triazolo[4,3-a]pyridin-3-yl)-6-fluoroquinolin-8-yl)-2-methylpropan-1-ol dihydrochloride]
- IC50 (recombinant rat PIM-3): 0.2 nM
- IC50 (PIM-1): 0.13 nM
- IC50 [1]: 8.7 nM

Structure (SMILES): C[C@]1(N)CCN([C@@H](c2ccc3nnc(-c4ccc5ccc(CCO)cc5n4)n3c2)C(F)(F)F)C1 [Example 317, 2-(2-(6-((S)-1-((S)-3-amino-3-methylpyrrolidin-1-yl)-2,2,2-trifluoroethyl)-[1,2,4]triazolo[4,3-a]pyridin-3-yl)quinolin-7-yl)ethanol]
- IC50 (recombinant rat PIM-3): 0.4 nM
- IC50 (PIM-1): 0.34 nM
- IC50 [1]: 194 nM

Structure (SMILES): CC(C)(O)COc1cc(F)cc2ccc(-c3nnc4ccc([C@@H](N5CC[C@H](N)C5)C(F)(F)F)cn34)nc12 [Example 259, 1-(2-(6-((R)-1-((S)-3-aminopyrrolidin-1-yl)-2,2,2-trifluoroethyl)-[1,2,4]triazolo[4,3-a]pyridin-3-yl)-6-fluoroquinolin-8-yloxy)-2-methylpropan-2-ol formate]
- IC50 (recombinant rat PIM-3): 0.3 nM
- IC50 (PIM-1): 0.12 nM
- IC50 [1]: 54 nM

Structure (SMILES): CC(C)Oc1cc(F)cc2ccc(-c3nnc4ccc([C@H](N5CCC(C)(O)C5)C(F)(F)F)cn34)nc12 (single isomer, unassigned; diastereomer 2) [Example 203, hydrochloride]
- IC50 (recombinant rat PIM-3): 37 nM
- IC50 (PIM-1): 19.8 nM
- IC50 [1]: > 1000 nM

Structure (SMILES): N[C@H]1CCN([C@H](c2ccc3nnc(-c4ccc5cc(F)cc(OC(F)F)c5n4)n3c2)C(F)(F)F)C1 [Example 228, (S)-1-((R)-1-(3-(8-(difluoromethoxy)-6-fluoroquinolin-2-yl)-[1,2,4]triazolo[4,3-a]pyridin-6-yl)-2,2,2-trifluoroethyl)pyrrolidin-3-amine dihydrochloride]
- IC50 (recombinant rat PIM-3): 3.8 nM
- IC50 (PIM-1): 0.79 nM
- IC50 [1]: 916 nM

Structure (SMILES): N[C@H]1CCN([C@H](c2ccc3nnc(-c4ccc5ccc(OC(F)(F)F)cc5n4)n3c2)C(F)(F)F)C1 [Example 239, (S)-1-((R)-2,2,2-trifluoro-1-(3-(7-(trifluoromethoxy)quinolin-2-yl)-[1,2,4]triazolo[4,3-a]pyridin-6-yl)ethyl)pyrrolidin-3-amine dihydrochloride]
- IC50 (recombinant rat PIM-3): 12 nM
- IC50 (PIM-1): 1.66 nM
- IC50 [1]: > 1000 nM

Structure (SMILES): C[C@H](O)COc1cccc2ccc(-c3nnc4ccc([C@@H](N5CC[C@H](N)C5)C(F)(F)F)cn34)nc12 [Example 187, (S)-1-(2-(6-((R)-1-((S)-3-aminopyrrolidin-1-yl)-2,2,2-trifluoroethyl)-[1,2,4]triazolo[4,3-a]pyridin-3-yl)quinolin-8-yloxy)propan-2-ol dihydrochloride]
- IC50 (recombinant rat PIM-3): 0.9 nM
- IC50 (PIM-1): 0.37 nM
- IC50 [1]: > 100 nM

Structure (SMILES): C[C@H](CO)Oc1cc(F)cc2ccc(-c3nnc4ccc([C@@H](N5CC[C@H](N)C5)C(F)(F)F)cn34)nc12 [Example 238, (R)-2-(2-(6-((R)-1-((S)-3-aminopyrrolidin-1-yl)-2,2,2-trifluoroethyl)-[1,2,4]triazolo[4,3-a]pyridin-3-yl)-6-fluoroquinolin-8-yloxy)propan-1-ol dihydrochloride]
- IC50 (recombinant rat PIM-3): 0.6 nM
- IC50 (PIM-1): 0.17 nM
- IC50 [1]: 166 nM
